Reference: patent US20220160812A1, “A PHARMACEUTICALLY ACTIVE SUBSTANCE” (Cytopharma GmbH, priority 2019, published 2022)

Experiments:
A375 melanoma cells [1] = experiment: cell vitality FACS analysis (region R-1, FSC/SSC), A375 melanoma cells; type: cell-based, human; details: A375, Protocol A, about 24 hours, FIG. 7; for decrease of cell vitality, comparison in words: any concentration (100, 200, 500 μM)
Protocol: (§1) To transfer adherent cells (A375 and BxPC-3 cells) after culture, cells are washed twice with PBS. To detach the cells, the enzyme biotase is used according to the manufacturer's instructions. For this purpose, after washing with PBS, the cells are mixed with biotase (5 ml of biotase solution per 75 cm^2 surface of the cell culture bottles) and incubated for 5 min at 37 degrees Celsius, and the biotase is separated by centrifugation. Cells cultivated in suspension (MEC-1 and lymphocytes) were transferred by dilution. The cells are suspended in culture medium and counted, each time 1.5×10^5 cells/cm^2 are seeded in 48-well plates and cultured for between 1.5 and 24 hours at 37 degrees Celsius, 5% CO2. Peptides are pre-diluted from stock solution with culture medium and 200 μl of peptide solution added so that final concentrations of 30 to 500 μM peptide are present in at most 1% (v/v) DMSO. As control solutions, culture medium without peptide (DMSO-containing) in culture medium or etoposide solution is added. After incubating the cells for several hours, the cell supernatant is transferred to a FACS tube for each batch and, after washing the cells with PBS, the wash solution is added. Then the cells are incubated with 200 μl of biotase solution for 10 min, 37° C., the cells with the biotase are also transferred to the FACS tube and the cells are collected by centrifugation for 5 min. The cell pellet is suspended in 500 μl of serum-free culture medium, then 1.5 ml of cold 80% ethanol (ethanol/PBS-80/20, v/v, stored at −20° C.) is added, the FACS tubes sealed and stored at −20 degrees Celsius for 15 to 18 h. Thereafter, the cells are centrifuged for 5 minutes at 120 g, suspended after removal of the supernatant in 2 ml PBS and incubated at 37 degrees Celsius for 30 minutes. After re-centrifugation, the cells are suspended in 0.5 ml DAPI solution and incubated for 15 min at 20 degrees Celsius in the dark. Thereafter, the cells are stored dark for a maximum of four hours in an ice bath, followed by the FACS analysis.
For suspension cells (MEC-1 and lymphocytes/PBMC) and for adherent cells analyzed according to Protocol A, FACS analysis to determine subG1 cell cycle and vital cell fractions was done on a Becton Dickinson LSR Fortessa flow cytometer. The analysis by FACS including subG1 and vital cell analysis according to protocol B was performed with a Cytomics FC 500 MPL flow cytometer from Beckman Coulter.
Changes of the cell form during cell death by apoptosis are documented in the literature (Lizard et al. 1995; Taga et al. 2000; Vermes et al., 2000). The protocols for cell cultivation, treatment and preparation of the cells before flow cytometry is detailed in separate examples. Cell suspensions of cell lines A375, BxPC-3, MEC-1 or of primary lymphocytes (see separate example of lymphocyte preparation) are analyzed by flow cytometry. The data are further analyzed by using the program “Flowing Software 2”. The data of light scattering are drawn in a two-dimensional FSC/SSC plot. Since the position in the FSC/SSC plot of apoptotic cells changes relative to non-apoptotic cells (Vermes et al., 2000), a region (R-1) is drawn representing mainly non-apoptotic cells and excluding cells with both low FSC and low SSC values and excluding cells with high values of FSC and/or SSC (FIG. 1). The regions are individually selected for each cell type (A375, BxPC-3, MEC-1 and primary lymphocytes). The percentage of untreated non-apoptotic cells in the region R-1 relative to total cells is set to 100%, representing 100% vital cells. The fraction (%) of cells in R-1 relative to the total number of cells in case of cell treatment by certain peptides or by cytotoxic drugs results in cell vitality, below 100%, thereby indicating a loss of cell vitality by the treatment. […]

A375 melanoma cells [2] = experiment: subG1 cell cycle FACS apoptosis assay, A375 melanoma cells; type: cell-based, human; details: about 24 hours, FIG. 3
Protocol: as §1
The adherent cells (A375 and BxPC-3 cells and MDA-MB-231, respectively) are seeded 24 hours before induction in 6-well plates in culture medium. For this, the cells are washed with PBS, then incubated with trypsin/EDTA solution at 37 degrees Celsius and suspended in culture medium. The 6-well plates are loaded with 1×10^5 cells/cm^2 in culture medium and the cells incubated for 24 hours until induction with the peptides in the incubator. For induction, the peptides are diluted in fresh culture medium. As control solutions, culture medium without peptide (DMSO-containing) in culture medium or etoposide solution is added. The cells are washed with PBS. Thereafter the peptide solution in culture medium is added to the cells. After incubation in the incubator (37° C., 5% CO2) between 1.5 and 24 hours, the cell supernatant is transferred to 15 ml centrifuge tubes, the cells are washed with 0.75 ml PBS and then with 0.5 ml versene solution. Both washings are combined with the cell supernatant. The cells are then added with 0.5 ml of trypsin/EDTA solution and incubated at about 37° C. for at most 10 minutes until the cells detached. The cell suspension is combined with cell supernatant and washings and centrifuged at about 130 g for about 10 minutes. After removing the supernatant, the cells are suspended in 400 μl of cell culture medium (without serum) and mixed with 1.2 ml of 80% ethanol/20% PBS (v/v) and incubated for 1 to 7 days at −20° C. For analysis, the cells are centrifuged at 130 g for 10 min, suspended in 2 ml PBS, and centrifuged again for 5 min. The cells are suspended in 700 μl PI buffer and incubated for 10 min at 37° C. in the dark. Subsequently, the cells are stored dark for a maximum of four hours in an ice bath, then the FACS analysis is performed.
The proportion of cells which have died was determined by two methods, both rely on the analysis of cells by flow cytometry, often called FACS analysis. […]

s-q-t-v-q-k-w-m-v-v-y-f-r [SEQID No 38]
efficiency (decrease of cell vitality) in view of Peptide SEQ C1 (A375 melanoma cells [1]; 200 μM): at least threefold
efficiency (decrease of cell vitality) in view of Peptide SEQ C1 (A375 melanoma cells [1]; 500 μM): at least tenfold
decrease of cell vitality, comparison in words (A375 melanoma cells [1]): clear improvement over peptides SEQID NO 27 and SEQID NO 39 at any concentration
decrease of cell vitality, comparison in words (A375 melanoma cells [1]; listed as SEQID NO 38): significantly greater decrease than the peptide of the prior art (Peptide SEQ C1)
apoptosis efficiency (subG1), comparison in words (A375 melanoma cells [2]; A375, Protocol A, 100, 200, 500 μM): clear improvement over peptide SEQID NO 27 at a concentration below 500 μM and over Peptide SEQID NO 39 at a concentration above 100 μM
apoptosis efficiency (subG1) in view of Peptide SEQ C1 (A375 melanoma cells [2]; A375, Protocol A, any concentration (100, 200, 500 μM)): at least tenfold
